Measured values from publication PMC5342555, “ATAD2 is an epigenetic reader of newly synthesized histone marks during DNA replication” (Oncotarget, 2016).
“Also recorded” adds a separate entry of the source.

How the values were obtained:
[1] = tested on: MCF7 cells; test: Cell growth, viable cells by AlamarBlue; assay type: cell-based; details: MCF7, 4 days after transfection, mean ± SD, n = 3
[2] = tested on: HEK293 cells; test: Isolation of proteins on nascent DNA (iPOND) after cycloheximide; assay type: cell-based
Procedure: iPOND was performed as previously described. Briefly, exponentially growing 1 x 10^8 of HEK 293 cells were incubated with 10 μM EdU (5-ethynyl-2'-deoxyuridine) and fixed in 1 % formaldehyde for 20 min at RT after 20 min (nascent chromatin) or chased for 2 h in fresh medium before fixation (mature chromatin). Crosslinking was stopped by addition of 0.125 M glycine and cells were permeabilized in 0.25 % Triton-X-100 for 30 min at RT followed by Click reaction to couple biotin to EdU. Cells were incubated in Click reaction buffer (0.01 mM biotin azide, 10 mM sodium ascorbate, 2 mM CuSO4 in PBS) for 1-2 h at RT with constant mixing. Cells were lysed in lysis buffer (1 % SDS in 50 mM Tris pH 8.0) and chromatin was solubilized by sonication in BIORUPTOR (Diagenode) for 4 min with medium frequency and 0.5 intervals at 4 °C. Biotinylated chromatin fragments were purified on streptavidine-dynabeads (ThermoFisher) by overnight end-over-end rotation at 4 °C. After stringent washing including once with 1 M NaCl the bound chromatin was released and crosslinking was reversed by boiling the beads in 2X LDS buffer for 40 min at 100 °C. Samples were dissolved in NuPAGE Bis-Tris gel and Western blot was performed.

[3] = tested on: endogenous ATAD2; test: Peptide pull down from MCF7 nuclear extract; assay type: binding; details: immobilized histone peptides, nuclear extract from MCF7 cells
Procedure: H4 peptides (1-25) conjugated with Biotin was immobilized on Streptavidin-coupled Dynabeads for 2 hours at 4 °C and incubated with nuclear extract from MCF7 cells. Nuclear extract was prepared by first isolating nucleus in hypotonic buffer (10 mM Tris-HCl pH 8.5, 10 mM NaCl, 0.5 mM TCEP and 0.1 % NP-40) and disrupting nuclear envelop in high salt buffer (20 mM Tris-HCl pH 8.5, 420 mM NaCl, 0.5 mM TCEP, 0.1 % Triton X-100, 25 % Glycerol) for 2 hours at 4 °C. Soluble nuclear extract was harvested by centrifugation at 20000 g for 20 min and diluted to 1:3 in buffer without NaCl in order to achieve physiological salt concentration, 140 mM. The nuclear extract was incubated with the immobilized peptides on the Streptavidin-Dynabeads overnight at 4 °C. Next day, the beads were washed three times with washing buffer (20 mM Tris-HCl pH 8.5, 140 mM NaCl, 0.5 mM TCEP, 0.1 % Triton X-100, 25 % Glycerol) and twice with high salt buffer. Bound proteins were recovered by boiling the beads in 1X sample buffer for 5 min. at 95 °C and analyzed by SDS-PAGE and Western Blotting. For direct binding experiments 1 μM of immobilized histone peptides on Streptavidin-Dynabeads were incubated with indicated amounts of ligands for 2 hours at 4 °C. After stringent washing as described above, bound proteins were analyzed in Western Blotting.

[4] = tested on: GST-ATAD2-BD WT; test: TR-FRET binding of biotinylated peptides to WT bromodomain; set-up: species or system human; details: for interaction with WT BD (TR-FRET, Figure 5C): 10 nM GST-ATAD2-BD WT, peptides at 100 nM and 1 μM
Procedure: (§1) TR-FRET measurements of GST-ATAD2 BD^981-1108 binding to the biotinylated synthetic peptides (Anaspec and Biosyntan) described in Supplementary Table S1 (SI Materials and Methods) were basically carried out as described recently for BRD4. For binding and competition experiments the concentration of GST-ATAD2 was 10 nM. Biotinylated peptides were tested in binding experiments at 100 nM and 1 μM, whereas the biotinylated H4K12ac tracer ([…]-K(Ac)-[…]-Biotin) was used at 50 nM in competition assays. […] All assays were performed in 50 mM HEPES pH 7.5, 100 mM NaCl, 50 mM KF, 0.25 mM CHAPS, 0.05 % BSA and 1 mM DTT and protein-peptide equilibrium complexes were detected with 10 nM of Anti-GST-XL665 MAb conjugate (Cisbio) and 2.5 nM of SA-Eu3+ Chelate (Perkin Elmer) as TR-FRET acceptor and donor molecules respectively. Raw fluorescence signals were acquired with a Pherastar FS microtiter plate reader (BMG) with 337 nm (excitation), 622 nm (donor emission) and 665 nm (acceptor emission). HTRF® ratio values were calculated as defined in the instrument software and normalized with low and high controls whenever appropriate. Competition experiments were analyzed with a four parameter logistic equation as defined in the GraphPad analysis software (http://www.graphpad.com/guides/prism/6/curve-fitting).

[5] = tested on: GST-ATAD2-BD Mut; test: TR-FRET binding of biotinylated peptides to mutant bromodomain; set-up: species or system human; details: 10 nM GST-ATAD2-BD Mut
Procedure: as §1

Compound	interaction with WT BD (TR-FRET, Figure 5C) [4]	interaction with mutant BD (TR-FRET, Figure 5C) [5]	further results
5’-AGAUCACCCUCCUUAAAUAUU-3’ [PLK1]			viable cells, fluorescence intensity normalized to control siRNA treated cells [1]: 38.5%
C[C@@H]1C[C@@H]([C@H](O)CC2CC(=O)NC(=O)C2)C(=O)[C@@H](C)C1 [cycloheximide]			recruitment of ATAD2 to nascent chromatin ([2]; HEK293, 250 μg/ml CHX […] before 10 μM EdU 20 min 37 °C, iPOND): abrogated; newly synthesized histone H4 acetylated at K12 on nascent chromatin ([2]; HEK293, CHX […], iPOND): lost; total level of ATAD2 ([2]; HEK293, CHX, Western blotting before crosslinking): unaffected
H4 (1-25): biotinylated unmodified histone H4 peptide, AnaSpec Cat. No. 65242-1			interaction with endogenous ATAD2 (pull down, Western blotting) [3]: not
H4K5,12diac (1-25): biotinylated histone H4 peptide di-acetylated at K5 and K12	interact	not with mutant BD	interaction with endogenous ATAD2 (pull down, Western blotting) [3]: interacts
H4K5/8/12/16ac (1-25): biotinylated histone H4 peptide acetylated at K5,8,12,16, AnaSpec Cat. No. 65248-1	interact	not with mutant BD	
H4K5ac (1-25): biotinylated histone H4 peptide acetylated at K5, AnaSpec Cat. No. 65229-1	strong binding; also recorded: interact	not with mutant BD	
H4K12ac (1-25): biotinylated histone H4 peptide acetylated at K12, AnaSpec Cat. No. 65208-1	strong binding; also recorded: interact	not with mutant BD	interaction with BD of ATAD2 (TR-FRET, Figure 5B) ([4]; 1 μM biotin-labelled peptide, 10 nM GST-ATAD2 BD, GST as control): strong interaction
